Results published in patent US7199138B2, “Substituted anthranilamides for controlling invertebrate pests” (E. I. du Pont de Nemours and Company, priority 2001, dated 2007).

- melting point: 231 to 233 °C
SMILES: Cc1cc(NC(=O)c2ccccc2)cc(C(=O)NC(C)C)c1NC(=O)c1cc(C(F)(F)F)nn1-c1ncccc1Cl
